# Experiments:
# Assay in all cases: relative viability (nuclei count vs DMSO), 5 days (fraction); higher = more cells survive
# ABC-1 = tested on: ABC-1
# Procedure, shortened: (§1)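 Relative viability divides the nuclei count in treated wells by that in vehicle wells. Lung cancer cell lines were seeded in 1536-well plates, dosed by pin tool the next day, and fixed and stained after 5 days in one step with final 0.05% Triton X-100, 1% formaldehyde and 1 ug/ml Hoechst. Dosing was a single drug or a fixed anchor-drug dose plus five library-drug doses (not always all listed) in √10 steps, and values are medians of duplicate plates imaged at 4×.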
# CAL-12T = tested on: CAL-12T
# Procedure, shortened: as §1
# COR-L23 = tested on: COR-L23
# Procedure, shortened: as §1
# EMC-BAC-2 = tested on: EMC-BAC-2
# Procedure, shortened: as §1
# HARA = tested on: HARA
# Procedure, shortened: as §1
# HCC-366 = tested on: HCC-366
# Procedure, shortened: as §1
# HOP-62 = tested on: HOP-62
# Procedure, shortened: as §1
# LK-2 = tested on: LK-2
# Procedure, shortened: as §1
# NCI-H1437 = tested on: NCI-H1437
# Procedure, shortened: as §1
# NCI-H1563 = tested on: NCI-H1563
# Procedure, shortened: as §1
# NCI-H1650 = tested on: NCI-H1650
# Procedure, shortened: as §1
# NCI-H1651 = tested on: NCI-H1651
# Procedure, shortened: as §1
# NCI-H1734 = tested on: NCI-H1734
# Procedure, shortened: as §1
# NCI-H1755 = tested on: NCI-H1755
# Procedure, shortened: as §1
# NCI-H2347 = tested on: NCI-H2347
# Procedure, shortened: as §1
# NCI-H3122 = tested on: NCI-H3122
# Procedure, shortened: as §1
# NCI-H596 = tested on: NCI-H596
# Procedure, shortened: as §1
# NCI-H727 = tested on: NCI-H727
# Procedure, shortened: as §1
# PC-3 [JPC-3] = tested on: PC-3 [JPC-3]
# Procedure, shortened: as §1
# RERF-LC-KJ = tested on: RERF-LC-KJ
# Procedure, shortened: as §1
# SK-LU-1 = tested on: SK-LU-1
# Procedure, shortened: as §1
# UMC-11 = tested on: UMC-11
# Procedure, shortened: as §1
smiles,measurement,setting,value
CN1CCN(CCOc2cc(OC3CCOCC3)c3c(Nc4c(Cl)ccc5c4OCO5)ncnc3c2)CC1 [Saracatinib] + CS(=O)(=O)CCNCc1ccc(-c2ccc3ncnc(Nc4ccc(OCc5cccc(F)c5)c(Cl)c4)c3c2)o1 [Lapatinib] (partner 2 µM),relative viability,ABC-1; first compound 0.02 µM,1.16
same,relative viability,ABC-1; first compound 0.2 µM,0.921
same,relative viability,ABC-1; first compound 0.6325 µM,1.08
same,relative viability,ABC-1; first compound 2 µM,0.921
same,relative viability,CAL-12T; first compound 0.02 µM,0.675
same,relative viability,CAL-12T; first compound 0.2 µM,0.678
same,relative viability,CAL-12T; first compound 0.6325 µM,0.791
same,relative viability,CAL-12T; first compound 2 µM,0.555
same,relative viability,COR-L23; first compound 0.02 µM,0.947
same,relative viability,COR-L23; first compound 0.2 µM,0.571
same,relative viability,COR-L23; first compound 0.6325 µM,1.1
same,relative viability,COR-L23; first compound 2 µM,0.897
same,relative viability,EMC-BAC-2; first compound 0.02 µM,0.91
same,relative viability,EMC-BAC-2; first compound 0.2 µM,0.792
same,relative viability,EMC-BAC-2; first compound 0.6325 µM,0.945
same,relative viability,EMC-BAC-2; first compound 2 µM,0.761
same,relative viability,HARA; first compound 0.02 µM,0.808
same,relative viability,HARA; first compound 0.6325 µM,1.1
same,relative viability,HARA; first compound 2 µM,0.442
same,relative viability,HCC-366; first compound 0.02 µM,1.02
same,relative viability,HCC-366; first compound 0.6325 µM,1.04
same,relative viability,HCC-366; first compound 2 µM,0.707
same,relative viability,HOP-62; first compound 0.02 µM,1.21
same,relative viability,HOP-62; first compound 0.2 µM,0.816
same,relative viability,HOP-62; first compound 0.6325 µM,1.05
same,relative viability,HOP-62; first compound 2 µM,1.21
same,relative viability,LK-2; first compound 0.02 µM,0.95
same,relative viability,LK-2; first compound 0.2 µM,0.715
same,relative viability,LK-2; first compound 0.6325 µM,0.725
same,relative viability,LK-2; first compound 2 µM,0.504
same,relative viability,NCI-H1437; first compound 0.02 µM,0.884
same,relative viability,NCI-H1437; first compound 0.2 µM,0.841
same,relative viability,NCI-H1437; first compound 0.6325 µM,0.783
same,relative viability,NCI-H1437; first compound 2 µM,0.757
same,relative viability,NCI-H1563; first compound 0.02 µM,0.941
same,relative viability,NCI-H1563; first compound 0.2 µM,0.778
same,relative viability,NCI-H1563; first compound 0.6325 µM,0.831
same,relative viability,NCI-H1563; first compound 2 µM,0.775
same,relative viability,NCI-H1650; first compound 0.02 µM,0.779
same,relative viability,NCI-H1650; first compound 0.2 µM,0.803
same,relative viability,NCI-H1650; first compound 0.6325 µM,0.573
same,relative viability,NCI-H1650; first compound 2 µM,0.47
same,relative viability,NCI-H1651; first compound 0.02 µM,0.92
same,relative viability,NCI-H1651; first compound 0.2 µM,0.678
same,relative viability,NCI-H1651; first compound 0.6325 µM,0.873
same,relative viability,NCI-H1651; first compound 2 µM,0.695
same,relative viability,NCI-H1734; first compound 0.02 µM,1.11
same,relative viability,NCI-H1734; first compound 0.6325 µM,0.999
same,relative viability,NCI-H1734; first compound 2 µM,0.777
same,relative viability,NCI-H1755; first compound 0.02 µM,1.01
same,relative viability,NCI-H1755; first compound 0.2 µM,0.816
same,relative viability,NCI-H1755; first compound 0.6325 µM,1.1
same,relative viability,NCI-H1755; first compound 2 µM,0.965
same,relative viability,NCI-H2347; first compound 0.02 µM,0.988
same,relative viability,NCI-H2347; first compound 0.2 µM,0.817
same,relative viability,NCI-H2347; first compound 0.6325 µM,1.12
same,relative viability,NCI-H2347; first compound 2 µM,0.903
same,relative viability,NCI-H3122; first compound 0.02 µM,1.03
same,relative viability,NCI-H3122; first compound 0.6325 µM,0.894
same,relative viability,NCI-H3122; first compound 2 µM,0.781
same,relative viability,NCI-H596; first compound 0.02 µM,1.02
same,relative viability,NCI-H596; first compound 0.2 µM,1.03
same,relative viability,NCI-H596; first compound 0.6325 µM,0.994
same,relative viability,NCI-H596; first compound 2 µM,0.796
same,relative viability,NCI-H727; first compound 0.02 µM,0.688
same,relative viability,NCI-H727; first compound 0.2 µM,0.647
same,relative viability,NCI-H727; first compound 0.6325 µM,0.78
same,relative viability,NCI-H727; first compound 2 µM,0.587
same,relative viability,PC-3 [JPC-3]; first compound 0.02 µM,0.439
same,relative viability,PC-3 [JPC-3]; first compound 0.2 µM,0.393
same,relative viability,PC-3 [JPC-3]; first compound 0.6325 µM,0.43
same,relative viability,PC-3 [JPC-3]; first compound 2 µM,0.402
same,relative viability,RERF-LC-KJ; first compound 0.02 µM,0.893
same,relative viability,RERF-LC-KJ; first compound 0.2 µM,0.82
same,relative viability,RERF-LC-KJ; first compound 0.6325 µM,0.881
same,relative viability,RERF-LC-KJ; first compound 2 µM,1.02
same,relative viability,SK-LU-1; first compound 0.02 µM,0.818
same,relative viability,SK-LU-1; first compound 0.2 µM,0.572
same,relative viability,SK-LU-1; first compound 0.6325 µM,0.45
same,relative viability,SK-LU-1; first compound 2 µM,0.406
same,relative viability,UMC-11; first compound 0.02 µM,0.931
same,relative viability,UMC-11; first compound 0.2 µM,0.763
same,relative viability,UMC-11; first compound 0.6325 µM,0.896
same,relative viability,UMC-11; first compound 2 µM,0.78

# Source: the supplement of paper PMC10307832
